In patent publication US11225505B2, “Antimicrobial polymyxin derivative compounds” (MONASH UNIVERSITY, priority 2015, dated 2022):
In brackets after ≈: the same amount, converted by molar mass. Where a SMILES comes first, the peptide text is derived from it. Bridges are numbered along the chain shown (N, C = ends). [ ]: non-standard residue; d: D form. The star is where a group is joined. X41 = O=C(c1cc2cc(F)c(F)cc2[nH]1)*; X47 = O=C(c1cc2cc(Cl)ccc2[nH]1)*; X6 = Cn1c(C(=O)*)cc2cc(Cl)ccc21; X27 = O=C(c1sc2ccccc2c1Cl)*; Dab = NCC[C@H](N)C(=O)O; Abu = CC[C@H](N)C(=O)O; Dap = NC[C@H](N)C(=O)O

What was measured:
Type in all cases: cell-based
[1] = test system: Acinetobacter baumannii FADDI-AB030; test: microbe, parasite or virus in culture; conditions: FADDI-AB030
Summary of the method: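 Broth microdilution MIC in cation-adjusted Mueller-Hinton broth per CLSI M100-S24; lipopeptides tested as TFA salts. FADDI-AB030 is a multidrug-resistant clinical isolate. Polymyxin B sulphate served as control.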

[2] = test system: Klebsiella pneumoniae FADDI-KP032; conditions: FADDI-KP032
Summary of the method: (§1)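 Values are MICs of the lipopeptide trifluoroacetic acid salts. Dilution series were set up in CAMHB as CLSI M100-S24 specifies.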

[3] = test system: Pseudomonas aeruginosa FADDI-PA022; conditions: FADDI-PA022
Summary of the method: as §1

[4] = test system: Pseudomonas aeruginosa ATCC 27853; conditions: ATCC 27853
Summary of the method: as §1

[5] = test system: Pseudomonas aeruginosa FADDI-PA01; conditions: FADDI-
Summary of the method: as §1

[6] = test system: Klebsiella pneumoniae FADDI-KP022; conditions: FADDI-KP022
Summary of the method: as §1

[7] = test system: Acinetobacter baumannii ATCC 17978; conditions: ATCC 17978
Summary of the method: as §1

[8] = test system: Enterobacter cloacae FADDI-EC003; conditions: FADDI-EC003
Summary of the method: as §1

[9] = test system: Enterobacter cloacae FADDI-EC006; conditions: FADDI-EC006
Summary of the method: as §1

[10] = test system: Pseudomonas aeruginosa FADDI-PA038; conditions: FADDI-PA038
Summary of the method: as §1

[11] = test system: Enterobacter cloacae FADDI-EC001; conditions: FADDI-EC001
Summary of the method: (§2)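 Following CLSI procedure M100-S24, minimum inhibitory concentrations of trifluoroacetate lipopeptides are measured in cation-adjusted Mueller-Hinton medium by broth microdilution, alongside a polymyxin B sulphate control.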

[12] = test system: Acinetobacter baumannii FADDI-AB034; conditions: FADDI-AB034
Summary of the method: as §1

[13] = test system: Klebsiella pneumoniae Kp BM1; conditions: Kp BM1
Summary of the method: as §2

Row | SMILES | Minimum inhibitory concentration [1] [µg/mL] | Minimum inhibitory concentration [2] [µg/mL] | Minimum inhibitory concentration [3] [µg/mL] | Minimum inhibitory concentration [4] [µg/mL] | Minimum inhibitory concentration [5] [µg/mL] | Minimum inhibitory concentration [6] [µg/mL] | Minimum inhibitory concentration [7] [µg/mL] | Minimum inhibitory concentration [8] [µg/mL] | Minimum inhibitory concentration [9] [µg/mL] | Minimum inhibitory concentration [10] [µg/mL] | Minimum inhibitory concentration [11] [µg/mL] | Minimum inhibitory concentration [12] [µg/mL] | Minimum inhibitory concentration [13] [µg/mL]
1 | CC[C@@H]1NC(=O)[C@@H](CC(C)C)NC(=O)[C@H](CCN)NC(=O)[C@@H](NC(=O)[C@H](CN)NC(=O)[C@@H](NC(=O)[C@H](CCN)NC(=O)c2cc3cc(Cl)ccc3n2C)[C@@H](C)O)CCNC(=O)[C@H]([C@@H](C)O)NC(=O)[C@H](CCN)NC(=O)[C@H](CCN)NC1=O [Compound 58] (X6-[Dab]T[Dap][Dab][Dab][dL][Abu][Dab][Dab]T; lactam 4-C) | 0.25 (≈ 0.212 µM) | 0.5 (≈ 0.424 µM) | 0.5 (≈ 0.424 µM) | 0.5 (≈ 0.424 µM) | 0.5 (≈ 0.424 µM) | <0.125 | 0.25 (≈ 0.212 µM) | <0.125 | 0.5 (≈ 0.424 µM) | 2 (≈ 1.7 µM) | 1 (≈ 0.848 µM) | 0.5 (≈ 0.424 µM) | 0.25 (≈ 0.212 µM)
2 | CC[C@@H]1NC(=O)[C@@H](CC(C)C)NC(=O)[C@H](CCN)NC(=O)[C@@H](NC(=O)[C@H](CN)NC(=O)[C@@H](NC(=O)[C@H](CCN)NC(=O)c2cc3cc(Cl)ccc3[nH]2)[C@@H](C)O)CCNC(=O)[C@H]([C@@H](C)O)NC(=O)[C@H](CCN)NC(=O)[C@H](CCN)NC1=O [Compound 59] (X47-[Dab]T[Dap][Dab][Dab][dL][Abu][Dab][Dab]T; lactam 4-C) | 0.5 (≈ 0.429 µM) | 0.25 (≈ 0.215 µM) | 0.5 (≈ 0.429 µM) | 0.5 (≈ 0.429 µM) | 0.25 (≈ 0.215 µM) | <0.125 | 0.5 (≈ 0.429 µM) | 0.25 (≈ 0.215 µM) | 0.5 (≈ 0.429 µM) | 1 (≈ 0.859 µM) | 0.25 (≈ 0.215 µM) | <0.125 | 0.5 (≈ 0.429 µM)
3 | CC[C@@H]1NC(=O)[C@@H](CC(C)C)NC(=O)[C@H](CCN)NC(=O)[C@@H](NC(=O)[C@H](CN)NC(=O)[C@@H](NC(=O)[C@H](CCN)NC(=O)c2cc3cc(F)c(F)cc3[nH]2)[C@@H](C)O)CCNC(=O)[C@H]([C@@H](C)O)NC(=O)[C@H](CCN)NC(=O)[C@H](CCN)NC1=O [Compound 60] (X41-[Dab]T[Dap][Dab][Dab][dL][Abu][Dab][Dab]T; lactam 4-C) | 0.5 (≈ 0.429 µM) | 0.5 (≈ 0.429 µM) | 0.5 (≈ 0.429 µM) | 0.5 (≈ 0.429 µM) | 0.5 (≈ 0.429 µM) | 0.5 (≈ 0.429 µM) | 1 (≈ 0.857 µM) | 0.25 (≈ 0.214 µM) | 1 (≈ 0.857 µM) | 1 (≈ 0.857 µM) | 0.25 (≈ 0.214 µM) | 0.5 (≈ 0.429 µM) | 0.5 (≈ 0.429 µM)
4 | CC[C@@H]1NC(=O)[C@@H](CC(C)C)NC(=O)[C@H](CCN)NC(=O)[C@@H](NC(=O)[C@H](CN)NC(=O)[C@@H](NC(=O)[C@H](CCN)NC(=O)c2sc3ccccc3c2Cl)[C@@H](C)O)CCNC(=O)[C@H]([C@@H](C)O)NC(=O)[C@H](CCN)NC(=O)[C@H](CCN)NC1=O [Compound 61] (X27-[Dab]T[Dap][Dab][Dab][dL][Abu][Dab][Dab]T; lactam 4-C) | <0.125 | <0.125 | 0.25 (≈ 0.212 µM) | 0.25 (≈ 0.212 µM) | <0.125 | <0.125 | <0.125 | <0.125 | <0.125 | 0.25 (≈ 0.212 µM) | 0.25 (≈ 0.212 µM) | <0.125 | 0.25 (≈ 0.212 µM)
